In EP4818157A1, “N-SUBSTITUTED CYCLIC AMIDE COMPOUND” (Kissei Pharmaceutical Co., Ltd., priority 2023, dated 2025):

Biological target: T1, human TSHR (Homo sapiens, UniProt P16473)
T1 construct: expressed in transfected cells
Experiment: Measurement of antagonist activity using TSH-induced cAMP production in human TSHR-stably expressing CHO cells
Format: cell-based
Conditions: human TSH final concentration 50 ng/mL
Method in brief: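 CHO cells stably expressing human TSHR, in HBSS/20 mM HEPES/1 mM IBMX, pre-incubated with compound 15 min at room temperature, then stimulated 1 h at 37°C with human TSH (50 ng/mL final). cAMP measured by HTRF (665/620 nm), expressed as % of control; IC50 from concentration-response.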

T1 sequence (P16473 21-764): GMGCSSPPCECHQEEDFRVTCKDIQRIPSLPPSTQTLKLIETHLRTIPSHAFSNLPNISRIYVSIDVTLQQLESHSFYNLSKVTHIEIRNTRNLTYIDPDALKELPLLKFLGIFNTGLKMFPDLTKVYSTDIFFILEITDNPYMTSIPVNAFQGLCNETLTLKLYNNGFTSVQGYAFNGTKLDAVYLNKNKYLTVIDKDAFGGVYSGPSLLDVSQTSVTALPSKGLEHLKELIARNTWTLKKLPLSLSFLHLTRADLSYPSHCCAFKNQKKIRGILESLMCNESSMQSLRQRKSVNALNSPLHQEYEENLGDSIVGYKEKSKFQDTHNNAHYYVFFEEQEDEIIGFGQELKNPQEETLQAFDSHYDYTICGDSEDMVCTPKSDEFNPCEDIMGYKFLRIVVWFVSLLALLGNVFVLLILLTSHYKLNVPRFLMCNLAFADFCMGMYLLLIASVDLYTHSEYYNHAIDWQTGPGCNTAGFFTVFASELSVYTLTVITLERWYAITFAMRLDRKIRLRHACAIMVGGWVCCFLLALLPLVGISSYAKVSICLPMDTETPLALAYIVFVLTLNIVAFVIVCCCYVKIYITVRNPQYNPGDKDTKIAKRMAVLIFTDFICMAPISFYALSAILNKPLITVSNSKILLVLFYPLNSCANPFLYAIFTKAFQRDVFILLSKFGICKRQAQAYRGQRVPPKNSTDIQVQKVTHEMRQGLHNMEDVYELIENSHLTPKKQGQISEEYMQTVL

`CNC(=O)Nc1ccc(C)n(Cc2cc(C(F)(F)F)cc(Cl)c2F)c1=O` [Example B-10, 1-(1-(3-chloro-2-fluoro-5-(trifluoromethyl)benzyl)-6-methyl-2-oxo-1,2-dihydropyridin-3-yl)-3-methylurea] and `Cc1ncc(NC(N)=O)c(=O)n1Cc1cc(C(F)(F)F)cc(Cl)c1F` [Example B-8, 1-(1-(3-chloro-2-fluoro-5-(trifluoromethyl)benzyl)-2-methyl-6-oxo-1,6-dihydropyrimidin-5-yl)urea] cannot be ordered by IC50: < 3 µM for the first, < 3 µM for the second.

First: CC(c1cc(C(F)(F)F)ccc1F)N1C(=O)[C@H](NC(N)=O)CC[C@H]1C(F)(F)F (stereo partly drawn) [Example A-22, 1-((3R,6S)-1-(1-(2-fluoro-5-(trifluoromethyl)phenyl)ethyl)-2-oxo-6-(trifluoromethyl)piperidin-3-yl)urea]
Second: NC(=O)N[C@@H]1CC[C@@H](C(F)(F)F)N(Cc2cc(CCC3CC3)ccc2F)C1=O [Example D-2, 1-((3R,6S)-1-(5-(2-cyclopropylethyl)-2-fluorobenzyl)-2-oxo-6-(trifluoromethyl)piperidin-3-yl)urea]
The IC50 of the first is higher: > 30 µM for the first, < 3 µM for the second. The second is the more potent here.

First: C[C@@H]1CC[C@@H](NC(N)=O)C(=O)N1Cc1cc(C(F)(F)F)cc(Cl)c1F (relative stereo) [Example A-3, 1-((3R^*,6R^*)-1-(3-chloro-2-fluoro-5-(trifluoromethyl)benzyl)-6-methyl-2-oxopiperidin-3-yl)urea]
Second: N#Cc1ccc2c(c1)N(Cc1cccc(C(F)(F)F)c1)C(=O)[C@H](NC(N)=O)C2 [Example C-8, (R)-1-(7-cyano-2-oxo-1-(3-(trifluoromethyl)benzyl)-1,2,3,4-tetrahydroquinolin-3-yl)urea]
The IC50 of the first is lower: < 3 µM for the first, 3 to 30 µM for the second.

`NC(=O)N[C@@H]1Cc2ccc(C(F)F)cc2N(Cc2cccc(C(F)(F)F)n2)C1=O` [Example F-2, (R)-1-(7-(difluoromethyl)-2-oxo-1-((6-(trifluoromethyl)pyridin-2-yl)methyl)-1,2,3,4-tetrahydroquinolin-3-yl)urea] and `NC(=O)N[C@@H]1Cc2ccc(F)cc2N(Cc2cc(C(F)F)ccc2F)C1=O` [Example C-11, (R)-1-(1-(5-(difluoromethyl)-2-fluorobenzyl)-7-fluoro-2-oxo-1,2,3,4-tetrahydroquinolin-3-yl)urea] cannot be ordered by IC50: < 3 µM for the first, < 3 µM for the second.

Compared with `NC(=O)Nc1ccc(CN2CCCC2)n(Cc2cc(C(F)(F)F)ccc2F)c1=O` [Example E-6, 1-(1-(2-fluoro-5-(trifluoromethyl)benzyl)-2-oxo-6-(pyrrolidin-1-ylmethyl)-1,2-dihydropyridin-3-yl)urea], `N#Cc1cccc(CN2C(=O)[C@H](NC(N)=O)Cc3ccccc32)c1` [Example C-2, (R)-1-(1-(3-cyanobenzyl)-2-oxo-1,2,3,4-tetrahydroquinolin-3-yl)urea] is higher in IC50: < 3 µM for the first, > 30 µM for the second. The first is the more potent here.

Biological target: T2, TSHR (Mus musculus, UniProt P47750)
T2 construct: host or cells: mouse, in vivo (TRH- or M22-administered)
T2 sequence (P47750 22-764): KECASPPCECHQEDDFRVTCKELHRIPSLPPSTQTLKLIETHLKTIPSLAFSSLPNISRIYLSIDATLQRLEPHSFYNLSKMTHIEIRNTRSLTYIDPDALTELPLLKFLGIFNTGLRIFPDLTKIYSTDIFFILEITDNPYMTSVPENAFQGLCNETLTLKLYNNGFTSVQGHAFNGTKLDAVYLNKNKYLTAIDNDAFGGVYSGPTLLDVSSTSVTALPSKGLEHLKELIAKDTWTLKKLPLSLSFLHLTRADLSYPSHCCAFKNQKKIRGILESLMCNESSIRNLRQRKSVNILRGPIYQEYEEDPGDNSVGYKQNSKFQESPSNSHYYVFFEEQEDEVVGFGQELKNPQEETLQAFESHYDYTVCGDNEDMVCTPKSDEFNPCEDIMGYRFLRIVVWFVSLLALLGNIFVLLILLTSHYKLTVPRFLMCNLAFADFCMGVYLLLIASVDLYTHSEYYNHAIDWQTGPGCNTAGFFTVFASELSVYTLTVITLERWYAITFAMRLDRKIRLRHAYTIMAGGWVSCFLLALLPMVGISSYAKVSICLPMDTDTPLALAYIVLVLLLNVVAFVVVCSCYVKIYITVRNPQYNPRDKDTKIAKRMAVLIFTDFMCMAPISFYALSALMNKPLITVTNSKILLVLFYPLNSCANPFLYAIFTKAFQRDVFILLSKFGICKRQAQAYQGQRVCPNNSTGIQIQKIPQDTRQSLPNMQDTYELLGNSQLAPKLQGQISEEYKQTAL
Experiment: not given
Conditions: TSH-releasing hormone (TRH)-administered mouse; cited from earlier work

In the case of `COc1ccc(C2Nc3ccccc3C(=O)N2Cc2ccco2)cc1COc1c(C)cc(NC(C)=O)cc1C` (stereo not drawn) [NCGC00242364], the “blood T4 concentration” value is given as “lowering a blood T4 concentration”.

Same assay, conditions: thyroid-stimulating antibody (M22)-administered mouse; cited from earlier work

For `COc1ccc(C2Nc3ccccc3C(=O)N2Cc2ccco2)cc1COc1c(C)cc(NC(C)=O)cc1C` (stereo not drawn) [NCGC00242364], the “blood T4 concentration” value is given as “lowering a blood T4 concentration”.
